Data on 2 compounds can be found in BindingDB's records for doi:10.1016/s0960-894x(98)00576-9 (Research Triangle Institute, 1999).

The experiment in a line: Compound was tested for the inhibition of [35S]GTP-gamma-S, binding in Guinea pig Caudate stimulated by the Opioid receptor delta 1 agonist Delta-SNC80. (GTPγS resists hydrolysis and so accumulates on activated G proteins.)

In the case of `CN1CC[C@]2(c3cccc(O)c3)Cc3ccccc3C[C@]2(C)C1` [3-((4aS,10aS)-2,10a-Dimethyl-1,3,4,5,10,10a-hexahydro-2H-benzo[g]isoquinolin-4a-yl)-phenol], the Ki – broadly, the dissociation constant of the complex between target and ligand, obtained from inhibition or displacement – turned out to be 222 nM.
With `C[C@]12Cc3ccccc3C[C@@]1(c1cccc(O)c1)CCN(CCc1ccccc1)C2` [3-((4aS,10aS)-10a-Methyl-2-phenethyl-1,3,4,5,10,10a-hexahydro-2H-benzo[g]isoquinolin-4a-yl)-phenol], the affinity corresponds to a Ki of 184 nM.
